The target of experiment [1] is Beta-lactamase (Enterobacter cloacae, UniProt P05364). Nature of the experiment: Inhibitory activity against class C Beta-lactamase isolated from Enterobacter cloacae.
Experiment [2] deals with Beta-lactamase TEM (Escherichia coli) (UniProt P62593). The experiment can be described thus: Inhibitory activity against class A Beta-lactamase TEM isolated from Escherichia coli.
For experiment [3], the system named is Escherichia coli. Nature of the experiment: The compound was evaluated for antimicrobial activity against Escherichia coli OC 4075 by inhibiting enzyme TEM-1. Format: functional.
In experiment [4] the test system is Pseudomonas aeruginosa. Nature of the experiment: The compound was evaluated for antimicrobial activity against Pseudomonas aeruginosa OC 4270 by inhibiting enzyme AmpC(ind). Format: functional.
Experiment [5] relates to Serratia marcescens. Nature of the experiment: The compound was evaluated for antimicrobial activity against Serratia marcescens OC 4294 by inhibiting enzyme AmpC(const). The class given is functional.
The test system of experiment [6] is Enterobacter cloacae. Nature of the experiment: The compound was evaluated for antimicrobial activity against Enterobacter cloacae OC 4080 by inhibiting enzyme P99. Format: functional.
Experiment [7] concerns Serratia marcescens. Nature of the experiment: The compound was evaluated for antimicrobial activity against Serratia marcescens OC 4101 by inhibiting enzyme AmpC(ind). The class given is functional.
Experiment [8] concerns Pseudomonas aeruginosa. The experiment can be described thus: The compound was evaluated for antimicrobial activity against Pseudomonas aeruginosa OC 4290 by inhibiting enzyme AmpC(const). The class given is functional.
The test system of experiment [9] is Serratia marcescens. Nature of the experiment: The ratio of compound to that of piperacillin was evaluated for antimicrobial activity against Serratia marcescens OC 4101 by inhibiting enzyme AmpC(ind) at 1 ug/mL. The class given is functional.
The subject of experiment [10] is Serratia marcescens. Nature of the experiment: The ratio of compound to that of piperacillin was evaluated for antimicrobial activity against Serratia marcescens OC 4294 by inhibiting enzyme AmpC(const) at 1 ug/mL. Format: functional.
Experiment [11] concerns Pseudomonas aeruginosa. The experiment can be described thus: The ratio of compound to that of piperacillin was evaluated for antimicrobial activity against Pseudomonas aeruginosa OC 4290 by inhibiting enzyme AmpC(const) at 1 ug/mL. The class given is functional.
In experiment [12] the test system is Serratia marcescens. The experiment can be described thus: The ratio of compound to that of piperacillin was evaluated for antimicrobial activity against Serratia marcescens OC 4101 by inhibiting enzyme AmpC(ind) at 4 ug/mL. The class given is functional.
In experiment [13] the test system is Escherichia coli. The experiment can be described thus: The ratio of compound to that of piperacillin was evaluated for antimicrobial activity against Escherichia coli OC 4075 by inhibiting enzyme TEM-1 at 1 ug/mL. The class given is functional.
In experiment [14] the test system is Escherichia coli. The experiment can be described thus: The ratio of compound to that of piperacillin was evaluated for antimicrobial activity against Escherichia coli OC 4075 by inhibiting enzyme TEM-1 at 4 ug/mL; not applicable. The class given is functional, organism-based.
Experiment [15] concerns Pseudomonas aeruginosa. The experiment can be described thus: The ratio of compound to that of piperacillin was evaluated for antimicrobial activity against Pseudomonas aeruginosa OC 4270 by inhibiting enzyme AmpC(ind) at 4 ug/mL. The class given is functional.
Experiment [16] has as its system Serratia marcescens. Nature of the experiment: The ratio of compound to that of piperacillin was evaluated for antimicrobial activity against Serratia marcescens OC 4294 by inhibiting enzyme AmpC(const) at 4 ug/mL. Format: functional.
For experiment [17], the system named is Enterobacter cloacae. Nature of the experiment: The compound was evaluated for antimicrobial activity against Enterobacter cloacae OC 4092 by inhibiting enzyme E2 (ind). The class given is functional.
Experiment [18] concerns Enterobacter cloacae. The experiment can be described thus: The compound was evaluated for antimicrobial activity against Enterobacter cloacae OC 4081 by inhibiting enzyme E2 (const). The class given is functional.
Experiment [19] has as its system Pseudomonas aeruginosa. The experiment can be described thus: The ratio of compound to that of piperacillin was evaluated for antimicrobial activity against Pseudomonas aeruginosa OC 4270 by inhibiting enzyme AmpC(ind) at 1 ug/mL. The class given is functional.
Experiment [20] concerns Enterobacter cloacae. The experiment can be described thus: The ratio of compound to that of piperacillin was evaluated for antimicrobial activity against Enterobacter cloacae OC 4080 by inhibiting enzyme P99 at 1 ug/mL. The class given is functional.
For experiment [21], the system named is Enterobacter cloacae. The experiment can be described thus: The ratio of compound to that of piperacillin was evaluated for antimicrobial activity against Enterobacter cloacae OC 4080 by inhibiting enzyme P99 at 4 ug/mL; not applicable. Format: functional, organism-based.
The subject of experiment [22] is Pseudomonas aeruginosa. The experiment can be described thus: The ratio of compound to that of piperacillin was evaluated for antimicrobial activity against Pseudomonas aeruginosa OC 4290 by inhibiting enzyme AmpC(const) at 4 ug/mL. The class given is functional.
The subject of experiment [23] is Escherichia coli. Nature of the experiment: The ratio of compound to that of piperacillin was evaluated for antimicrobial activity against Escherichia coli OC 4075 by inhibiting enzyme TEM-1 at 4 ug/mL. Format: functional.
Experiment [24] has as its system Enterobacter cloacae. The experiment can be described thus: The ratio of compound to that of piperacillin was evaluated for antimicrobial activity against Enterobacter cloacae OC 4080 by inhibiting enzyme P99 at 4 ug/mL. Format: functional.
Where [25] appears, read: Pseudomonas aeruginosa, read-out: MIC.
Where [26] appears, read: Enterobacter cloacae, read-out: MIC.
The mark [27] stands for this setting: Escherichia coli, read-out: MIC.

What is called IC50 is the midpoint of a concentration-inhibition curve. Higher therefore signals a need for much substance. Usually MIC stands for the least concentration at which growth counts as inhibited.

In brackets after ≈: the same amount, converted by molar mass. Activity calls are given as the source filed them. No cut-off for these calls is given here.

Sequence of Beta-lactamase (P05364 whole entry): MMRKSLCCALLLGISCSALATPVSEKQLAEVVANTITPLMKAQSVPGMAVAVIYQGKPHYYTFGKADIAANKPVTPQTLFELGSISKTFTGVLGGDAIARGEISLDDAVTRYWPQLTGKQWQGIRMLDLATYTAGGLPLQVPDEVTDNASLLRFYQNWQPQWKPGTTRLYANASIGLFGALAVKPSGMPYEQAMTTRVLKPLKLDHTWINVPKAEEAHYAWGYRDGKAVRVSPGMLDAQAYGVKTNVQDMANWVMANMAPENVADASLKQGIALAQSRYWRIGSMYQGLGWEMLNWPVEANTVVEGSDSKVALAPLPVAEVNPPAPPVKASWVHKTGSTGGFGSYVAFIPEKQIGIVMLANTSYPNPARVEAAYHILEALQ
Sequence of Beta-lactamase TEM (Escherichia coli) (P62593 whole entry, looked up): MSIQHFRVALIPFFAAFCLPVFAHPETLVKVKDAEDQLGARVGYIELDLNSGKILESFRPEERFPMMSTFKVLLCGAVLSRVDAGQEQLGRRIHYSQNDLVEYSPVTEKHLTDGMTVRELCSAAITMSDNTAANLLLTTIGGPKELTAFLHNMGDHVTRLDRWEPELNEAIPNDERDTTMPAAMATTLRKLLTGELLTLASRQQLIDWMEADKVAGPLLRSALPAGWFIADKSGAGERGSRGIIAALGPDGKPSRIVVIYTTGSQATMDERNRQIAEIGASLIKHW

Take `O=C1NC(=S)S/C1=C\c1cn(-c2ccccc2)nn1`: the IC50 in experiment [1] is 83 µM; in [2], over 700 µM.
`CCN1C(=O)/C(=C/c2ccccc2)SC1=S`: the IC50 was 240 µM in experiment [1] and 432 µM in [2].
As to `O=C1NC(=S)SC1=CC=Cc1ccco1`, the IC50 is 62 µM in [1] and 100 µM in [2].
Consider `O=C1NC(=S)S/C1=C1/C(=O)Nc2ccccc21`, for which the IC50 in experiment [1] amounted to 2.6 µM; in experiment [2], 8.7 µM.
Take `CN(C)c1ccc(C=CC=C2SC(=S)NC2=O)cc1`: the IC50 was 8 µM in experiment [1] and over 100 µM in experiment [2].
Consider `CCN1CCN(C(=O)N[C@@H](C(=O)N[C@@H]2C(=O)N3[C@@H]2SC(C)(C)[C@@H]3C(=O)O)c2ccccc2)C(=O)C1=O` [PIPERACILLIN], for which the MIC in experiment [3] was over 64 µg/mL; in experiment [4] (setting [25]) it was 8 µg/mL (≈ 15.5 µM); in experiment [5], over 64 µg/mL; in experiment [6] (setting [26]), over 64 µg/mL; in [7], 8 µg/mL (≈ 15.5 µM); in [8] (setting [25]), over 64 µg/mL.
On to `O=C1/C(=C/c2ccccc2)SC(=S)N1CNc1nncs1`, for which the IC50 in [1] came out at 246 µM; in experiment [2] it was 138 µM.
Turning to `O=C1/C(=C/c2ccccc2)SC(=S)N1CNc1nn[nH]n1`, the IC50 in experiment [1] is 435 µM; in [2], over 700 µM.
`O=C1NC(=S)S/C1=C\c1ccccc1[N+](=O)[O-]`: the results for the half-inhibitory concentration (IC50) in experiment [1] and in experiment [2] were 290 µM and over 700 µM, respectively.
Consider `O=C(O)CN1C(=O)/C(=C/c2ccccc2)SC1=S`, for which the IC50 in experiment [1] and in experiment [2] was over 700 µM each time.
Regarding `O=C1NC(=S)S/C1=C\CCc1ccccc1`, the values for the IC50 in experiment [1] and in experiment [2] were 9.7 µM and 32 µM, respectively.
Consider `O=C1NC(=S)S/C1=C\c1ccccc1C(=O)O`, for which the concentration for half-maximal inhibition (IC50) in experiment [1] and in experiment [2] was over 700 µM in each case.
Consider `CC(=O)Nc1ccccc1/C=C1\SC(=S)NC1=O`, for which the IC50 in experiment [1] is over 700 µM; in experiment [2], 190 µM.
Turning to `O=C1NC(=S)SC1=CC=Cc1ccccc1`, the figures for the IC50 in experiment [1] and in experiment [2] were 76 µM and over 700 µM, respectively.
In the case of `O=C1NC(=S)SC1=CC=Cc1ccc([N+](=O)[O-])o1`, the minimal inhibitory concentration (MIC) in [3] came out at 2 µg/mL (≈ 7.08 µM); in [3] (setting [27]) it was 2 µg/mL (≈ 7.08 µM); in experiment [4] it was 32 µg/mL (≈ 113 µM); in experiment [4] (setting [25]), 32 µg/mL (≈ 113 µM); in experiment [5] it was 8 µg/mL (≈ 28.3 µM); in experiment [6], 2 µg/mL (≈ 7.08 µM). Moreover, the MIC in experiment [6] (setting [26]) was 2 µg/mL (≈ 7.08 µM); in [17], 32 µg/mL (≈ 113 µM); in experiment [18], 32 µg/mL (≈ 113 µM); in [7], 8 µg/mL (≈ 28.3 µM); in experiment [8] it was 32 µg/mL (≈ 113 µM); in experiment [8] (setting [25]) it was 32 µg/mL (≈ 113 µM). In addition, the Ratio in [9] was 2; in [10], 32; in experiment [11], 16; in experiment [12], 2; in [13], 64; in [15], 4. The Ratio is 8 in [16], 4 in experiment [19], 64 in experiment [20] and 8 in experiment [22]. Moreover, the IC50 was determined as 0.45 µM in experiment [1] and 100 µM in [2]. For the same compound, the Ratio entry in [14] and in experiment [21] was “inactive” each time.
Take `O=C1NC(=S)S/C1=C\c1ccc([N+](=O)[O-])cc1`: the IC50 in experiment [1] was 43 µM; in experiment [2] it was over 700 µM.
Regarding `O=C1NC(=S)S/C1=C\c1cn(-c2ccccc2)cn1`, the IC50 in experiment [1] and in experiment [2] was over 700 µM throughout.
For `O=C1NC(=O)C(=CC=Cc2ccc([N+](=O)[O-])o2)S1`, the MIC stood at 1 µg/mL (≈ 3.76 µM) in experiment [3] (setting [27]); 32 µg/mL (≈ 120 µM) in [4] (setting [25]); 0.5 µg/mL (≈ 1.88 µM) in experiment [6] (setting [26]); 4 µg/mL (≈ 15 µM) in experiment [17]; 4 µg/mL (≈ 15 µM) in experiment [18]; 32 µg/mL (≈ 120 µM) in experiment [8] (setting [25]). The IC50 in experiment [1] and in experiment [2] was over 50 µM throughout.
With `C[C@]1(Cn2ccnn2)[C@H](C(=O)O)N2C(=O)C[C@H]2S1(=O)=O` [TAZOBACTAM], the minimal inhibitory concentration (MIC) in experiment [23] was found to be 8 µg/mL; in experiment [12], 4 µg/mL; in experiment [24], 64 µg/mL; in [15], 8 µg/mL; in [16] it was 32 µg/mL; in experiment [22], 32 µg/mL.
As for `O=C1NC(=S)SC1=CC=Cc1ccc([N+](=O)[O-])cc1`, the figures for the IC50 in [1] and in [2] were 4.2 µM and 100 µM, respectively.
Take `N#Cc1ccc(/C=C2\SC(=S)NC2=O)cc1`: the IC50 in experiment [1] was 500 µM; in experiment [2], over 700 µM.
The corresponding values for `O=C1NC(=S)S/C1=C\c1ccccc1O` are 335 µM and over 700 µM.

Source of the values: ChEMBL document CHEMBL1132742, “The synthesis and SAR of rhodanines as novel class C beta-lactamase inhibitors” (Bioorg Med Chem Lett, 2000).
